pIC50: −log10 of the molar value. Values after ≈ are worked out from the molar mass of the structure shown.
Experiments:
Staphylococcus aureus [1] = experiment: Antimicrobial activity against wild type Staphylococcus aureus; format: functional
[2] = biological target: T1, 3-oxoacyl-[acyl-carrier-protein] synthase 2 (Staphylococcus aureus, UniProt Q5TKS0); experiment: Inhibition of FabF-mediated type 2 fatty acid synthesis in Staphylococcus aureus by cell free assay
T1 sequence (Q5TKS0 whole entry): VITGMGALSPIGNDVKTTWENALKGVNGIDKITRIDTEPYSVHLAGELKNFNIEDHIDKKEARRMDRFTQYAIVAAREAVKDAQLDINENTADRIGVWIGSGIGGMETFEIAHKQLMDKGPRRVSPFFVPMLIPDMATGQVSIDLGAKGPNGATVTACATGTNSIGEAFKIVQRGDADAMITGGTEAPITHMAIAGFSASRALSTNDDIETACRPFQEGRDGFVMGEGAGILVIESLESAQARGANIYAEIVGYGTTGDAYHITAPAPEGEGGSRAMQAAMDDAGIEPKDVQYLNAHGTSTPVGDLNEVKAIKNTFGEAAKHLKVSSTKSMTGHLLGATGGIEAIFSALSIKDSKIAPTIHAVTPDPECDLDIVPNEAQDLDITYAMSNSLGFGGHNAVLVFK

Staphylococcus aureus [3] = experiment: Antibacterial activity against antisense fabH/fabF sensitized Staphylococcus aureus assessed as minimum concentration required to show differential zone of fabF antisense strain clearance by two plate differential sensitivity assay; format: functional

| Compound | MIC (Staphylococcus aureus [1]) [µg/mL] | pIC50 [2] | Activity (Staphylococcus aureus [3]) [µg/mL] |
| --- | --- | --- | --- |
| CC1=CC(=O)[C@@](C)(CCC(=O)Nc2c(O)ccc(C(=O)O)c2O)C2C3CC4CC12CC4(C)O3 (stereo not given in full) | 4 (≈ 8.78 µM) | 5.28 | 0.03 |
| CN1CC23CC4CC(OC4(C)C2)C3[C@](C)(CCC(=O)Nc2c(O)ccc(C(=O)O)c2O)C1=O (stereo not given in full) | > 64 | < 3.36 | >2.7 |
| CC12CC34Cc5cnoc5[C@@](C)(CCC(=O)Nc5c(O)ccc(C(=O)O)c5O)C3C(CC1C4)O2 (stereo not given in full) | 16 (≈ 34.2 µM) | 4.65 | 0.3 |
| Cn1ncc2c1[C@@](C)(CCC(=O)Nc1c(O)ccc(C(=O)O)c1O)C1C3CC4CC1(C2)CC4(C)O3 (stereo not given in full) | > 64 | 3.81 | >2.7 |
| CC12CC34CC1CC(O2)C3[C@](C)(CCC(=O)Nc1c(O)ccc(C(=O)O)c1O)C(=O)[C@@H]1C[C@@H]14 (stereo not given in full) | 1 (≈ 2.2 µM) | 4.68 | 0.1 |
| CC12CC34COC(=O)[C@@](C)(CCC(=O)Nc5c(O)ccc(C(=O)O)c5O)C3C(CC1C4)O2 (stereo not given in full) | > 64 | 3.78 | >2.7 |
| CC1CC(=O)[C@@](C)(CCC(=O)Nc2c(O)ccc(C(=O)O)c2O)C2C3CC4CC12CC4(C)O3 (stereo not given in full) | 4 (≈ 8.74 µM) | 4.55 | <20 |
| CC12CC34CCC(=O)[C@@](C)(CCC(=O)Nc5c(O)ccc(C(=O)O)c5O)C3C(CC1C4)O2 (stereo not given in full) [DIHYDROPLATENSIMYCIN] | 2 (≈ 4.51 µM) | 5.35 | 0.4 |
| CC12CC34CC1CC(O2)C3[C@](C)(CCC(=O)Nc1c(O)ccc(C(=O)O)c1O)C(=O)CC4c1ccccc1 (stereo not given in full) [PHENYL DIHYDROPLATENSIMYCIN] | 4 (≈ 7.7 µM) | 5.11 | <20 |
| CC12C[C@@]34C=CC(=O)[C@@](C)(CCC(=O)Nc5c(O)ccc(C(=O)O)c5O)C3[C@H](CC1C4)O2 (stereo not given in full) [PLATENSIMYCIN] | 0.5 (≈ 1.13 µM) | 5.95 | 0.01 |

— ChEMBL document CHEMBL1153309, “Synthesis and biological evaluation of platensimycin analogs” (Bioorg Med Chem Lett, 2009)
